{"source": "patent US8785416B2", "about": "“Sulphated disaccharides for the treatment of neurodegenerative and/or neurovascular diseases” (Bioiberica, S.A., priority 2009, dated 2014)", "key": {"rat hippocampal slices": {"test_system": "rat hippocampal slices", "test": "Oxygen and glucose deprivation (1 hour OGD, 2 hours reoxygenation) in hippocampal slices, LDH release", "type": "cell-based", "description": "Male Spague Dawley strain rats (250-325 g) were used. After anaesthesia by means of an intraperitoneal injection of 60 mg/Kg sodium pentobarbital (Euta-Lender®), they were decapitated with a guillotine and the brain was extracted after a craniotomy. The brain was immediately submersed in a dissection solution, a cold (4° C.) modified Krebs-Henseleit solution at pH 7.4, the composition of which is: 120 mM NaCl, 2 mM KCl, 0.5 mM CaCl2, 26 mM NaHCO3, 10 mM MgSO4, 1.18 mM KH2PO4, 11 mM glucose and 200 mM sucrose, bubbled with 95% O2-5% CO2. The hippocampi were isolated, embedded in 2% low melting point agarose (Sigma-Aldrich), and cut into 350 μm transverse slices in a vibratome (Leica VT1000S).\nAfter the cutting in the vibratome, the slices were transferred to a vial with sucrose-free dissection Krebs solution, bubbled with 95% O2-5% CO2 for 60 minutes (equilibrium period). […]\nFor the protocol of 1 hour of OGD followed by 2 hours of reoxygenation, the viability was determined by measuring the release of LDH into the extracellular medium according to the method described in Example 3. The quantification of LDH was performed in samples taken (i) after the preincubation period, (ii) after the hour of OGD and (iii) after each hour of reoxygenation (1 hour and 2 hours)."}, "TNFα": {"test_system": "TNFα", "test": "TNFα production in LPS-activated cerebral cortex astrocytes (RT-PCR)", "type": "cell-based, rat", "conditions": "0.03 μM, simultaneous with 10 μg/mL LPS for 2 hours", "description": "Newborn male rats aged 2-3 days were used. After a craniotomy, both cortices were extracted and deposited in a Petri dish with cold PBS. Under a microscope magnifying lens, the meninges of each cortex were extracted. Once clean, they were submersed in cold DMEM and a mechanical dissection was performed with a pipette. Then, the sample was centrifuged at 1,000 rpm for 5 minutes and the supernatant was decanted. The precipitate was resuspended in DMEM with 20% FBS and a mixture of antibiotics (penicillin/streptomycin). Finally, it was passed through a 70 μm filter and seeded in a 75 cm^2 flask with an aerated filter stopper. The calculation for the seeding of the cells was one flask (15 mL of medium) for every newborn used. […]\nSubsequently, the medium of each flask was collected and taken to 50 mL Falcon tubes, they were centrifuged for 5 minutes at 1,000 rpm and the supernatant was decanted. The precipitate was resuspended in DMEM with 10% FBS and antibiotics and the cells were counted for their subsequent seeding.\nThe induction of inflammation in the astrocytes was performed by means of adding 10 μg/mL lipopolysaccharide together with the compounds to be studied (compound Ic at 0.03 μM and chondroitin sulphate at 10 μM) for 2 hours. […] The quantification was performed by the direct measurement of absorbance at 260/280 nm in a Nanodrop® spectrophotometer. […]"}}}
{"substance": "methyl 2-acetamido-2-deoxy-3-O-(β-D-glucopyranosyluronic acid)-4,6-di-O-sulpho-α-D-glucopyranoside, trisodium salt [compound Ic]", "values": [{"measurement": "protective effect against cell death (LDH release)", "setting": "rat hippocampal slices; 1 μM, at 2 hours of reoxygenation after 1 hour OGD", "value": 40, "unit": "%"}, {"measurement": "effect on cell death after one hour of OGD followed by 2 hours of reoxygenation", "setting": "rat hippocampal slices; 1 and 10 μM", "value": "reduced cell death in a concentration-dependent"}, {"measurement": "reduction of the production of TNFα", "setting": "TNFα", "value": 75, "unit": "%"}]}
